According to publication PMC9946977, “Identification of linderalactone as a natural inhibitor of SHP2 to ameliorate CCl4-induced liver fibrosis” (Frontiers in Pharmacology, 2023):

Legend:
mouse liver = experiment: LIN alone in mice (toxicity); type: in vivo, C57BL/6 mice; details: LIN alone 40 mg/kg i.g. once per day, 4 weeks
Protocol: C57BL/6 mice (20 ± 2 g) were obtained from Hangzhou Medical College Experimental Animal Center (Hangzhou, China). The animals were maintained under controlled temperature (22°C ± 1°C), humidity (50%), and light (12 h light/12 h dark). The animals were fed a standard laboratory diet and provided with free access to tap water. All animals received humane care according to institutional animal care guidelines approved by the Experimental Animal Ethical Committee of Hangzhou Medical College. […] After treatment, the mice were sacrificed, and plasma and liver tissues were collected and further analysed.
Serum was collected from blood samples after centrifugation at 860 × g for 15 min. Serum ALT (Nanjing Jiancheng Bioengineering Institute, C010-2-1) and AST (Nanjing Jiancheng Bioengineering Institute, C009-2-1) activities were measured using kits, according to the manufacturer’s instructions. Liver hydroxyproline content was determined using the alkaline hydrolysis method, as described in the kits. Serum levels of laminin (LN) were measured using ELISA kits, according to the manufacturer’s instructions (Shanghai YANJIN Biological Technology Co., LTD, F12019). […]

SHP2-depleted LX-2 cells = experiment: SHP2 knockdown (siRNA) LX-2 cells treated with LIN; type: cell-based, human; details: LX-2 cells transfected with SHP2 siRNA
Protocol: The LX-2 cell line was purchased from the Cell Bank Type Culture Collection of the Chinese Academy of Sciences (Shanghai, China). Cells were cultured in DMEM supplemented with 10% [v/v] foetal bovine serum, 2 mM glutamine, 100 U/ml penicillin, and […] streptomycin. SHP-2 and control siRNAs were obtained from Suzhou GenePharma Co., Ltd. (sense 5'-3': GAGAGAGGAAAGAGUAAAUTT; antisense 5'-3': AUUUACUCUUUCCUCUCUCTT). Transfection was performed according to the manufacturer’s instructions. Subsequent real-time PCR and western blotting were performed to analyse transfection efficiency.
Total RNA was extracted from liver tissues and LX-2 cells using the TRIzol reagent. cDNA was synthesised using a PrimeScript RT Master Mix kit. Real-time PCR was performed using SYBR Green premix according to the manufacturer’s instructions. Relative expression of target genes was normalised to actin, analysed by the delta-delta-CT method and given as a ratio compared with the vehicle control. Primer sequences used in this study are listed in Supplementary Material.

[1] = biological target: T1, SHP2-PTP K366A/Q510A double mutant (Homo sapiens, UniProt Q06124, K366A/Q510A); experiment: BLI assay, SHP2-PTP K366A/Q510A double mutant; type: binding
T1 construct: Human SHP2 PTP domain (A237–I529) expression constructs; His-tag; made in house; host or cells: E. coli BL21 (DE3)
T1 sequence (Q06124 237-529 K366A/Q510A): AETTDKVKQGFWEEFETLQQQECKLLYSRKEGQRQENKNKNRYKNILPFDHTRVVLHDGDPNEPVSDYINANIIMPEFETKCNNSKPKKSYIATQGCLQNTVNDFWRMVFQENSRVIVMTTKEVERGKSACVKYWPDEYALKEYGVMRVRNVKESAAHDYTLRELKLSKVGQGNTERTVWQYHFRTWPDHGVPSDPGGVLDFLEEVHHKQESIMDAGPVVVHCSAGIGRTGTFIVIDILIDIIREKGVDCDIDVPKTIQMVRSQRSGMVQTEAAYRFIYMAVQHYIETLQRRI
Protocol: Human SHP2 PTP domain (A237–I529) expression constructs were engineered by cloning PTPN11 (NP_002825.3) into the pET30 plasmid with a His-tag to support further protein purification. The K366A/Q510A double mutation was introduced into the wild-type template using a site-directed mutagenesis kit (E0554S; New England Biolabs). The expression constructs were sequenced and transformed into BL21 (DE3)-competent cells. E. coli cells were grown at 37°C in an LB culture medium in the presence of […] kanamycin until the OD600 reached 1.0. The medium was then cooled to 18°C and 1 mM isopropyl ß-D-1-thiogalactopyranoside (IPTG) was added to induce protein expression overnight.
Cell pellets were collected and suspended in a buffer of 50 mM Tris-HCl (Ph = 8.5), 150 mM NaCl supplemented with 10% glycerol, and lysed by homogeniser (JN-BIO, China). […]
The BLI assay was performed using a FortéBio Octet 96 system. […] After equilibrium, the kinetics of the LIN and SHP2-PTP association were analysed by soaking the SSA sensors in a compound solution with various LIN concentrations for 300 s (6.25, 12.5, 25, 50, 100, and 200 μM), followed by 300 s of dissociation in the same HEPES buffer. The equilibrium constant (KD) values were assessed using the FortéBio data analysis software by fitting the kinetic data using a 1:1 binding model.

- BLI response value ([1]; 200 μM LIN): lower than 0.2
- effect of K366A/Q510A mutation on binding affinity between LIN and SHP2-PTP ([1]; BLI): significantly eliminated
Structure (SMILES): C/C1=C\CCC2=C[C@@H](OC2=O)c2c(C)coc2C1 [LIN, linderalactone]
- ALT/AST (mouse liver): no obvious alteration
- pathological changes in mouse liver tissue (mouse liver): no obvious alteration
- sensitivity of fibrogenic gene expression to LIN treatment (SHP2-depleted LX-2 cells): much less sensitive
